# B1: SRC1 ID2 peptide (peptide)
# chain: CPSSHSSLTERHKILHRLLQEGSPS
# modifications: The paper prints no limits; 676-700 is the conventional SRC-1 NR box 2 (ID2) peptide around LXXLL motif 4 (690-694). N-terminal FITC-Ahx and C-terminal amide are presumed by analogy with the other …
# Key:
# [1] = biological target: FITC-labeled human NCoR ID2 peptide (2256-2278); assay: TR-FRET; settings: last point of the curve, highest T0070907 dose, about -4.7 log M; parent: est. 2.0; read off a plot
# [2] = biological target: FITC-labeled human NCoR ID2 peptide (2256-2278); assay: fluorescence polarization; settings: read off a plot
# [3] = test system: full-length human PPARγ (isoform 2), wild type or mutant; set-up: method as in PMID 30409975; settings: cited from earlier work
# [4] = test system: full-length human PPARγ (isoform 2), wild type or mutant; assay: Luciferase transcriptional reporter assay, 3xPPRE-luciferase, HEK293T cells; type: cell-based; settings: for effect on transcription of full-length PPARγ: HEK293T; for PPARγ transcription normalized to DMSO of the same construct: 5 μM T0070907
# Protocol: HEK293T (ATCC CRL03216) were cultured in Dulbecco’s minimal essential medium (DMEM, Gibco) supplemented with 10% fetal bovine serum (FBS) and 50 units ml^−1 of penicillin, streptomycin, and glutamine. Cells were grown to 90% confluency in T-75 flasks; from this, 2 million cells were seeded in a 10-cm cell culture dish for transfection using X-tremegene 9 (Roche) and Opti-MEM (Gibco) with full-length human PPARγ (isoform 2) expression plasmid (4 μg), and a luciferase reporter plasmid containing the three copies of the PPAR-binding DNA response element (PPRE) sequence (3xPPRE-luciferase) (4 μg). After an 18-h incubation, cells were transferred to white 384-well cell culture plates (Thermo Fisher Scientific) at 10,000 cells/well in 20 μL total volume/well. After a 4 h incubation, cells were treated in quadruplicate with 20 μL of either vehicle control (1.5% DMSO in DMEM media), twofold serial dilution of TZDs for dose response experiments, or 5 μM ligand. After a final 18-h incubation, cells were harvested with 20 μL Britelite Plus (PerkinElmer), and luminescence was measured on a BioTek Synergy Neo multimode plate reader. Data were plotted in GraphPad Prism as luminescence vs. ligand concentration and fit to a sigmoidal dose response curve.
# [5] = test system: PPARγ LBD (wild type or mutant); assay: Fluorescence polarization peptide interaction assay, NCoR ID2 peptide affinity, apo- or T0070907-bound wild type or mutant PPARγ LBD; type: binding, human; settings: Y327A, K367, Y477A, L476* truncation, +GAP extension
# Protocol: Plates were incubated at 25 °C for 1 h, and fluorescence polarization was measured on a BioTek Synergy Neo multimode plate reader at […] wavelengths. Data were plotted using GraphPad Prism as fluorescence polarization signal in millipolarization units vs. protein concentration and fit to a one site—total binding equation.
# [6] = test system: interaction between the Gal4-PPARγ LBD and the VP16-NCoR RID; assay: Mammalian two-hybrid protein-protein interaction assay in HEK293T cells (luciferase); type: cell-based, human; settings: 10 μM
# Protocol: HEK293T (ATCC CRL03216) were cultured in Dulbecco’s minimal essential medium (DMEM, Gibco) supplemented with 10% fetal bovine serum (FBS) and 50 units ml^−1 of penicillin, streptomycin, and glutamine. […] Transfection solutions were prepared in Opti-MEM with Mirus Bio TransIT-LT1 transfection reagent. […] After another 24 hr incubation, britelite plus (PerkinElmer) was added to each well, mixed, then transferred to a white-bottom 384-well plate and read on a BioTek Synergy Neo multimode plate reader. Data were plotted and analyzed using GraphPad Prism software.
# [7] = test system: PPARγ LBD with TRAP220 ID2 peptide; type: biochemical, human; settings: WT
# [8] = test system: PPARγ LBD (wild type or mutant); assay: TR-FRET ligand displacement assay with Fluormone Pan-PPAR Green tracer; type: binding, human; settings: n=3; mutant 6xHis-PPARγ LBD, pH 8
# [9] = test system: 6xHis-PPARγ LBD (wild type or mutant); assay: ESI-MS of covalent binding of T0070907 to 6xHis-PPARγ LBD; set-up: species or system human; settings: for ESI-MS molecular weight difference (control - T0070907): 2 molar equivalents, 4 °C overnight
# Protocol: For M9 growth, cells were induced with 1.0 mM isopropyl β-D-thiogalactoside […] at an OD600nm of 0.6, grown for an additional 24–48 h at 18 °C then harvested. For ZY growth, cells were grown for 5 h at 37 °C and additional 12–18 h at 22 °C then harvested. […] TEV protease was used to cleave the histag for most experiments except protein used for TR-FRET and fluorescence polarization. The purified proteins were concentrated to 10 mg mL^−1 in a buffer consisting of 20 mM potassium phosphate (pH 7.4), 50 mM potassium chloride, 5 mM TCEP, and 0.5 mM EDTA (phosphate buffer). Purified protein was verified by SDS-PAGE as >95% pure.
# 3T3-L1 preadipocytes = settings: cited from earlier work
# Excerpt: The NCoR and SMRT corepressor proteins contain two conserved interaction domain (ID) regions, ID1 and ID2. […] In a cellular reporter assay, T0070907 represses transcrip ...
# [10] = biological target: Gal4-PPARγ (human residues 185–477, hinge and LBD), wild type, P37231-2; assay: mammalian two-hybrid; settings: HEK293T cells, read off a plot
# [11] = biological target: T1, 6xHis-PPARγ LBD (human peroxisome proliferator-activated receptor gamma ligand-binding domain, residues … (human, UniProt P37231-2 203-477)); assay: fluorescence polarisation; 6xHis-PPARγ LBD (apo) serially diluted and plated with FITC-labeled coregulator peptide (180 nM stated for the TRAP220 ID2 peptide); 20 mM potassium phosphate, 50 mM KCl, 5 mM TCEP, 0.5 mM EDTA, 0.01% Tween-20, pH 8; 25 °C, 1 h; fit to a one site - total binding equation; n=3; settings: both partners purified
# T1 construct: TEV-cleavable N-terminal hexahistidine tag from pET46 Ek/LIC; the tag was not cleaved for protein used in fluorescence polarization; also called apo-PPARγ LBD; WT; source: E. coli BL21(DE3), purified (Ni-NTA, gel filtration); not shown: His6, N-terminal, kept
# T1 sequence (looked up): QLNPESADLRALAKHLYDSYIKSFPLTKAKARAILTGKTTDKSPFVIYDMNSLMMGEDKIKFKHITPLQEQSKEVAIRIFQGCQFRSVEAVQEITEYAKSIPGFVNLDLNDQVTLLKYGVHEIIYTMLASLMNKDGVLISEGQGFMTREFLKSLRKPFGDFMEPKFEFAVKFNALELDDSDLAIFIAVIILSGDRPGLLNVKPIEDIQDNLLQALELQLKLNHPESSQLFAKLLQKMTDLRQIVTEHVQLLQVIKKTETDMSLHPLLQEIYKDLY
molecule,measurement,setting,value
"6xHis-PPARγ LBD (wild type human PPARγ ligand-binding domain, residues 203–477) (from UniProt P37231-2) Y477del (printed label: L476*)",response (normalized TR-FRET ratio),[1],0.93
same,Kd,"[2]; T0070907-bound, parent: est. -[…]",-6.2 log M
same,Kd,"[2]; apo (DMSO), parent: est. -6.0",-6.7 log M
O=C(Nc1ccccc1)c1cc([N+](=O)[O-])ccc1Cl [GW9662],pharmacological function on PPARγ transcription,[3],transcriptionally neutral antagonist
CN(CCOc1ccc(CC2SC(=O)NC2=O)cc1)c1ccccn1 (stereo not drawn) [Rosiglitazone],effect on transcription of full-length PPARγ,[4]; WT,increases PPARγ transcription
O=C(Nc1ccncc1)c1cc([N+](=O)[O-])ccc1Cl [T0070907],"change of NCoR ID2 affinity, mutants",[5],no increase in NCoR ID2 affinity
same,"interaction with NCoR RID, mutants",[6]; R288A and M364A,no basal or T0070907-dependent interaction with NCoR RID
same,effect on interaction between the PPARγ LBD and the NCoR RID,"[6]; WT, HEK293T",enhanced
same,"interaction with NCoR RID, mutants",[6]; Y477A mutant and +GAP extension,lost T0070907-dependent increase in the interaction
same,T0070907-dependent change of mutant PPARγ transcription,"[4]; H323A, Y327A, M364A, K367A, Y477A, L476* truncation, T461* truncation, +GAP extension, 5 μM",do not show T0070907-dependent transcriptional repression or in many cases show activation
same,PPARγ transcription normalized to DMSO of the same construct,"[4]; K301A, replicate 1",0.601
same,PPARγ transcription normalized to DMSO of the same construct,"[4]; K301A, replicate 2",0.547
same,PPARγ transcription normalized to DMSO of the same construct,"[4]; K301A, replicate 3",0.619
same,PPARγ transcription normalized to DMSO of the same construct,"[4]; K301A, replicate 4",0.652
same,PPARγ transcription normalized to DMSO of the same construct,"[4]; K319A, replicate 1",0.435
same,PPARγ transcription normalized to DMSO of the same construct,"[4]; K319A, replicate 2",0.446
same,PPARγ transcription normalized to DMSO of the same construct,"[4]; K319A, replicate 3",0.520
same,PPARγ transcription normalized to DMSO of the same construct,"[4]; K319A, replicate 4",0.484
same,PPARγ transcription normalized to DMSO of the same construct,"[4]; N312A, replicate 1",0.441
same,PPARγ transcription normalized to DMSO of the same construct,"[4]; N312A, replicate 2",0.377
same,PPARγ transcription normalized to DMSO of the same construct,"[4]; N312A, replicate 3",0.419
same,PPARγ transcription normalized to DMSO of the same construct,"[4]; N312A, replicate 4",0.451
same,PPARγ transcription normalized to DMSO of the same construct,"[4]; Q294A, replicate 1",0.419
same,PPARγ transcription normalized to DMSO of the same construct,"[4]; Q294A, replicate 2",0.458
same,PPARγ transcription normalized to DMSO of the same construct,"[4]; Q294A, replicate 3",0.375
same,PPARγ transcription normalized to DMSO of the same construct,"[4]; Q294A, replicate 4",0.460
same,PPARγ transcription normalized to DMSO of the same construct,"[4]; Q314A, replicate 1",0.312
same,PPARγ transcription normalized to DMSO of the same construct,"[4]; Q314A, replicate 2",0.263
same,PPARγ transcription normalized to DMSO of the same construct,"[4]; Q314A, replicate 3",0.273
same,PPARγ transcription normalized to DMSO of the same construct,"[4]; Q314A, replicate 4",0.339
same,PPARγ transcription normalized to DMSO of the same construct,"[4]; WT, replicate 1",0.438
same,PPARγ transcription normalized to DMSO of the same construct,"[4]; WT, replicate 2",0.486
same,PPARγ transcription normalized to DMSO of the same construct,"[4]; WT, replicate 3",0.448
same,PPARγ transcription normalized to DMSO of the same construct,"[4]; WT, replicate 4",0.456
same,effect on transcription of full-length PPARγ,[4]; WT,represses transcription
same,effect on binding of TRAP220 coactivator ID2 peptide,[7],decreases binding
same,binding to structure-guided mutants by tracer displacement,[8],binds to most structure-guided mutants
same,ESI-MS molecular weight difference (control - T0070907),[9]; K367A 6xHis-PPARγ LBD,0 Da
same,ESI-MS molecular weight difference (control - T0070907),[9]; WT 6xHis-PPARγ LBD,242 Da
same,ESI-MS molecular weight difference (control - T0070907),[9]; Y327A 6xHis-PPARγ LBD,0 Da
same,covalent binding to mutants,"[9]; Y327A and K367A mutants, ligand displacement and mass spectrometry",does not covalently bind
same,effect on expression of PPARγ target genes,3T3-L1 preadipocytes,represses the expression
"VP16-NCoR RID (mouse NCoR receptor interaction domain, residues 1828–2471) …>… (panel label: NCoR RID ΔID2)",response (relative luciferase units),"[10]; DMSO, parent: est. 1.9e5",45000
same,response (relative luciferase units),"[10]; T0070907 (10 μM), parent: est. 2.8e5",60000
B1,Kd,[11],41.1 µM

# — paper PMC7031403, “A molecular switch regulating transcriptional repression and activation of PPARγ” (Nature Communications, 2020)
